Measured values published in patent US8815892B2, “P2X7R antagonists and their use” (Affectis Pharmaceuticals AG, priority 2008, dated 2014).

Experiments:
[1] = system: LPA-induced neuropathic pain in C57/Bl6 mice; test: Lysophosphatidic acid (LPA)-induced neuropathy, mechanical hyperalgesia (digital Randall-Selitto); assay type: in vivo, mouse; conditions: 1 hour after dosing
Method: The therapeutic effects of the compounds of the present invention were assessed in the lysophosphatidic acid (LPA)-induced neuropathy in mice. This model is commonly used to evaluate the potential analgesic activity of compounds designed to treat neuropathic pain in humans (Inoue et al. (2004) Nat Med 10: 712-718; Inoue et al. (2008). Mol Pain 4(6) doi:10.1186/1744-8069-4-6). In this example, a representative compound of the invention, 4-chloro-N-(cycloheptylmethyl)-1-(2-hydroxyethyl)-1H-indole-3-carboxamide (Example 54), was tested.
Neuropathic pain was induced in male, C57/Bl6 mice (Harlan) by an intrathecal injection of 1 nmol LPA (prepared in saline; ENZO) in a 5 μL volume into the spinal cord. Pre-LPA injection, post-LPA injection and post-treatment values for mechanical hyperalgesia were evaluated using a digital Randall-Selitto device (dRS; IITC Life Sciences). Paw compression threshold was measured once at each time point for the left and right paws. […] The readings from the left and right paws were averaged at each time point. […]
Vehicle (0.5% carboxymethylcellulose (CMC)) or between 125-500 mg/kg of a compound of the present invention (dissolved in 0.5% CMC) were administered via oral gavage two days after LPA injection. […] If a significant main effect was detected, Dunnetts' post hoc test was used to compare treatment to vehicle treated animals. […]

EAE in SJL mice = test: Relapsing-remitting experimental autoimmune encephalomyelitis (EAE), PLP139-151/CFA model of multiple sclerosis; assay type: in vivo, mouse; conditions: SJL female mice
Method: The therapeutic effects of the compounds of the present invention were assessed in a mouse model of relapsing-remitting multiple sclerosis MS. The relapsing-remitting experimental autoimmune encephalomyelitis (EAE) which develops in SJL mice after immunization with the Proteolipid Protein PLP139-151 and Complete Freund's Adjuvant (CFA) is the mouse model which most closely resembles human remitting/relapsing MS (see Webb et al (2004) J Neuroimmunol 153:108-121). In this example, a representative compound of the invention, 4-chloro-N-(cycloheptylmethyl)-1-(2-hydroxyethyl)-1H-indole-3-carboxamide (Example 54), was tested.
EAE was induced in SJL female mice (Jackson Labs), using a PLP139-151/CFA Emulsion (Hooke Laboratories, Lawrence Mass.) according to the manufacturer's recommended protocol. Mice were injected subcutaneously at four sites (0.05 mL at each site) in the back with the emulsion. Two sites of injection were in the area of the upper back, approximately 1 cm caudal of the neck line. The other two sites were in the area of the lower back, approximately 2 cm cranial of the base of the tail. Individual animals were then examined daily for clinical signs of neurological deficits scored on a 0 to 5 scale as follows: 0, no abnormality; 0.5, stiff tail; 1, limp tail; 1.5, limp tail with inability to right; 2, paralysis of one limb; 2.5, paralysis of one limb and weakness of one other limb; 3, complete paralysis of both hind limbs; 4, moribund; 5, death. Daily scoring for signs of EAE started on Day 7 after immunization with the first symptoms observed between Days 11 and 15 after immunization. Treatment for each animal began on the second day that the animal developed EAE symptoms. […] The effect of treatment on development of EAE relapses was evaluated by comparing incidence and severity of relapses, and the end scores between the compound-treated groups and the vehicle group. Incidence of relapse were compared using two-tailed Fisher's exact test and the end scores between vehicle and treatment groups were calculated using Wilcoxon's non-parametric test. […]

| SMILES | mechanical hyperalgesia (paw compression thresholds) compared to pre-treatment baseline ([1]; 100 mg/kg intraperitoneal two days after LPA injection) | mean paw compression thresholds compared to pre-treatment baseline ([1]; 125-500 mg/kg oral gavage two days after LPA injection, p<0.05) | treated animals that developed relapses (EAE in SJL mice; 125 to 500 mg/kg twice daily oral gavage from second day of EAE symptoms, vehicle 50.0%, p=0.0038) | average EAE score on Day 40 (end of the study) (EAE in SJL mice; 125 to 500 mg/kg twice daily oral gavage, 0 to 5 scale, vehicle 1.34, p=0.0021) | day of relapse (the one mouse of the group that relapsed) (EAE in SJL mice; 125 to 500 mg/kg twice daily oral gavage, vehicle mean day of relapse 22, delay p=0.0039) |
| --- | --- | --- | --- | --- | --- |
| NCC1(CC(=O)O)CCCCC1 [gabapentin, reference compound] | slight decrease in mechanical hyperalgesia | – | – | – | – |
| O=C(NCC1CCCCCC1)c1cn(CCO)c2cccc(Cl)c12 [Example 54, 4-chloro-N-(cycloheptylmethyl)-1-(2-hydroxyethyl)-1H-indole-3-carboxamide] | – | significantly increased mean paw compression thresholds | 6% | 0.50 | 40 days |
